{"source": "paper PMC8224802", "about": "(Pharmaceutics, 2021)", "key": {"[1]": {"experiment": "Blood-to-plasma concentration ratio (rat whole blood)", "type": "in vitro ADME", "conditions": "RPG and QCT 5 μM each", "method": "(§1) A plasma sample was obtained by centrifugation of the blood sample at 2000× g for 5 min."}, "[2]": {"experiment": "Microsomal protein binding by rapid equilibrium dialysis (HLM)", "method": "A 200 μL spiked samples and 400 μL PBS were placed into the “sample” and “buffer” chambers of the RED device, respectively. After 4-h incubation to equilibrate between the buffer and plasma compartments, the RED plate was sampled from both compartments. The samples were matrix-matched for analysis by addition of either diluted plasma or buffer; (a) blank diluted plasma added to the buffer samples and (b) blank buffer added to the diluted plasma sample, at a ratio of 50:50 v/v. The unbound fractions in microsomes and diluted plasma were determined by dividing the analyte/IS peak area ratios of the (a) sample by those of the (b) sample. The unbound fraction in diluted plasma (fu,d) was converted to the unbound fraction in undiluted plasma (fu) using a Kalvass equation as below (DF: dilution factor). (1) fu=1/DF/[(1/fu,d)−1]+1/DF"}, "[3]": {"experiment": "Blood-to-plasma concentration ratio (human whole blood)", "type": "in vitro ADME", "conditions": "RPG and QCT 5 μM each", "method": "as §1"}}, "data": [{"smiles": "CCOc1cc(CC(=O)N[C@@H](CC(C)C)c2ccccc2N2CCCCC2)ccc1C(=O)O", "note": "[RPG, Repaglinide]", "values": [{"measurement": "Change of RB of RPG by the presence of QCT", "setting": "[1]", "result": "not significantly altered"}, {"measurement": "Change of fuMIC of RPG by the presence of QCT", "setting": "[2]; HLM, RPG and QCT 5 μM each", "result": "not significantly altered"}, {"measurement": "fraction unbound at 4 h, 5 μM", "setting": "[2]; human, liver microsomes", "result": "0.62 ± 0.152"}, {"measurement": "Change of RB of RPG by the presence of QCT", "setting": "[3]", "result": "not significantly altered"}]}]}
